According to patent US20240140895A1, “NOVEL AROMATIC MOLECULES” (XENIOPRO GmbH, priority 2018, published 2024):

Assays:
Format in all cases: cell-based
[1] = tested on: TT cells (human medullary thyroid carcinoma cells); test: Proliferation assay (alamarBlue) with TT cells
Text: (§1) The antiproliferative activities of compounds falling under formula (Ia), (Tb) and (Ic), respectively, were investigated on cells or cell lines originating from a disorder of the haematopoietic system, including the myeloid cell compartment and the lymphoid cell compartment (T-cells and B-cells), the neuroendocrine system, the cervix, the breast, the ovaries, the lung, the gastrointestinal tract, and the mucosal epithelium, as well as from the skin epithelium and from the muscle. To this end, HL-60 cells, NB-4 cells, HH cells, RPMI-8402 cells, TANOUE cells, TT cells, HeLa cells, MDA-MB-231 cells, FU-OV-1 cells, LOU-NH91 cells, 23132/87 cells, CAL-27 cells, BHY cells, SCC-25 cells, A-431 cells, human primary epidermal keratinocytes (HPEK), and C2C12 cells were seeded into 96-well plates suitable for fluorescence assays (CORNING #3598) at following initial cell numbers: 1000 cells per well for HL-60; 1000 cells per well for NB-4; 5000 cells per well for HH; 5000 cells per well for RPMI-8402; 1500 cells per well for TANOUE; 9000 cells per well for TT; 2000 cells per well for HeLa; 3000 cells per well for MDA-MB-231; 3000 cells per well for FU-OV-1; 4000 cells per well for LOU-NH91; 2000 cells per well for 23132/87; 2000 cells per well for CAL-27; 1500 cells per well for BHY; 1500 cells per well for SCC-25; 700 cells per well for A-431; 1000 cells per well for HPEK; 500 cells per well for C2-C12. […] The readout was taken with a multi-well plate-reader in the fluorescence mode with applying a filter for excitation at 560 nm (band width 10 nm) and for emission at 590 nm (band width 10 nm). […]
(§2) The assays were performed in duplicate or more replicates of independent single experiments each containing a six-fold replicate for every condition. For every individual plate, the measured fluorescence intensity values of the conditions with compound treatment were normalized against the corresponding equally weighted arithmetic mean of the fluorescence intensity values of the six DMSO treated control wells in order to obtain the relative values to a baseline level of 1.0. […]

[2] = tested on: BHY cells (human oral squamous cell carcinoma cells); test: Proliferation assay (alamarBlue) with BHY cells; settings: read-out: Activity Range: weighted arithmetic mean (AVEw) of normalized fluorescence intensity relative to DMSO basis level 1.0
Text: (§3) The antiproliferative activities of compounds falling under formula (Ia), (Tb) and (Ic), respectively, were investigated on cells or cell lines originating from a disorder of the haematopoietic system, including the myeloid cell compartment and the lymphoid cell compartment (T-cells and B-cells), the neuroendocrine system, the cervix, the breast, the ovaries, the lung, the gastrointestinal tract, and the mucosal epithelium, as well as from the skin epithelium and from the muscle. To this end, HL-60 cells, NB-4 cells, HH cells, RPMI-8402 cells, TANOUE cells, TT cells, HeLa cells, MDA-MB-231 cells, FU-OV-1 cells, LOU-NH91 cells, 23132/87 cells, CAL-27 cells, BHY cells, SCC-25 cells, A-431 cells, human primary epidermal keratinocytes (HPEK), and C2C12 cells were seeded into 96-well plates suitable for fluorescence assays (CORNING #3598) at following initial cell numbers: 1000 cells per well for HL-60; 1000 cells per well for NB-4; 5000 cells per well for HH; 5000 cells per well for RPMI-8402; 1500 cells per well for TANOUE; 9000 cells per well for TT; 2000 cells per well for HeLa; 3000 cells per well for MDA-MB-231; 3000 cells per well for FU-OV-1; 4000 cells per well for LOU-NH91; 2000 cells per well for 23132/87; 2000 cells per well for CAL-27; 1500 cells per well for BHY; 1500 cells per well for SCC-25; 700 cells per well for A-431; 1000 cells per well for HPEK; 500 cells per well for C2-C12. The cells were treated with compounds at indicated final concentrations (diluted from the 1000× stock-solutions in DMSO to a final DMSO concentration of 0.1% v/v in H2O (Water For Injection, WFI, Fisherscientific #10378939)) or with the empty carrier DMSO at 0.1% v/v as control for 5 days. At day 5 after starting the treatments the cells were subjected to the alamarBlue® Proliferation Assay (Bio-Rad Serotec GmbH, BUF012B) according to the protocol of the manufacturer. The readout was taken with a multi-well plate-reader in the fluorescence mode with applying a filter for excitation at 560 nm (band width 10 nm) and for emission at 590 nm (band width 10 nm). Control treatments for growth inhibition with commercial compounds such as Methotrexate (MTREX) and Resveratrol (RES) were included on every plate. Some of the test compounds of the present invention were obtained and applied as their salts. According cases are indicated in the column “Specification” in Table 30 to Table 62 and by their sum formula in Table 63.
(§4) The assays were performed in duplicate or more replicates of independent single experiments each containing a six-fold replicate for every condition. For every individual plate, the measured fluorescence intensity values of the conditions with compound treatment were normalized against the corresponding equally weighted arithmetic mean of the fluorescence intensity values of the six DMSO treated control wells in order to obtain the relative values to a baseline level of 1.0.
(§5) Two independent outlier analyses were performed according to the methods by Peirce and Chauvenet (Ross, Journal of Engineering Technology 2003, 1-12). Outliers confirmed by at least one of the methods were excluded from the calculations but not more than one value out of six per compound within a single experiment. The weighted arithmetic mean (here abbreviated as AVEw) for each compound was calculated from the normalized values over all independent replicates of the single experiments comprising the six replicates each. The corresponding standard deviation for the weighted arithmetic mean was calculated according to the method described by Bronstein et al. (Bronstein, Semendjajew, Musiol, Muhlig, Taschenbuch der Mathematik, 5th edition 2001 (German), publisher: Verlag Harri Deutsch, Frankfurt am Main and Thun) and was combined with the Gauβ′ error propagation associated with the performed calculation for the normalization. The resulting standard deviation is herein referred to as “combined standard deviation”. […]

[3] = tested on: CAL-27 cells (human tongue squamous cell carcinoma cells); test: Proliferation assay (alamarBlue) with CAL-27 cells; settings: read-out: Activity Range: weighted arithmetic mean (AVEw) of normalized fluorescence intensity relative to DMSO basis level 1.0
Text: as §3, §4, §5

[4] = tested on: HeLa cells (human cervical adenocarcinoma cells); test: Proliferation assay (alamarBlue) with HeLa cells
Text: as §1, §2

[5] = tested on: SCC-25 cells (human tongue squamous cell carcinoma cells); test: Proliferation assay (alamarBlue) with SCC-25 cells
Text: as §3, §4, §5

Oc1ccc(C=Cc2cc(O)cc(O)c2)cc1 [RES, resveratrol, reference compound]
Activity Range: weighted arithmetic mean (AVEw) of normalized fluorescence intensity relative to DMSO basis level 1.0 ([1]; compound at 20 μM): 0.9 ± 0.0
Activity Range: weighted arithmetic mean (AVEw) of normalized fluorescence intensity relative to DMSO basis level 1.0 ([1]; control at 40 μM): 0.7 ± 0.0
activity at 20 µM [2]: 50 ± 10%
activity at 20 µM [3]: 80 ± 10%
Activity Range: weighted arithmetic mean (AVEw) of normalized fluorescence intensity relative to DMSO basis level 1.0 ([4]; compound at 20 μM): 0.9 ± 0.0
Activity Range: weighted arithmetic mean (AVEw) of normalized fluorescence intensity relative to DMSO basis level 1.0 ([4]; control at 40 μM): 0.4 ± 0.1
Activity Range: weighted arithmetic mean (AVEw) of normalized fluorescence intensity relative to DMSO basis level 1.0 ([5]; 20 μM): 0.4 ± 0.1
activity at 20 µM ([5]; Homo sapiens, read-out: Activity Range: weighted arithmetic mean (AVEw) of normalized fluorescence intensity relative to DMSO basis level 1.0): 40 ± 10%
